Data from patent publication US6458822B2, “2-oxo-imidazolidine-4-carboxylic acid hydroxamide compounds that inhibit matrix metalloproteinases” (Pfizer Inc., priority 2000, dated 2002).

- melting point: 130 to 133 °C
Structure (SMILES): COc1ccc(CN2C[C@H](C(=O)NO)NC2=O)cc1 [Example 4, (4R)-1-(4-Methoxybenzyl)-2-oxo-imidazolidine-4-carboxylic Acid Hydroxyamide]
